Test results taken from publication PMC7717600, “Novel [(N-alkyl-3-indolylmethylene)hydrazono]oxindoles arrest cell cycle and induce cell apoptosis by inhibiting CDK2 and Bcl-2: synthesis, biological evaluation and in silico studies” (Journal of Enzyme Inhibition and Medicinal Chemistry, 2020).
Read-outs that look alike come from different tables or passages of the source.

Assays:
[1] = test system: OVCAR-4
[2] = test system: breast T-47D cancer cells; test: Annexin V-FITC/PI apoptosis assay; assay type: cell-based, human
From the text: In an attempt to further investigate whether the antiproliferative activity for conjugate 8a is harmonious with the apoptosis induction within T-47D cells pointed out by the increased cell population in sub-G1 phase in 8a-treated T-47D cells (Figure 3), Annexin V-FITC/PI dual staining analysis was used for the apoptosis assay (Figure 4).
Phosphatidylserine externalisation effect of conjugate 8a over breast T-47D cancer cell line was investigated using Annexin-V-FITC Apoptosis Detection Kit by flow cytometry, as described earlier.
4.2.4. Cell Cycle Analysis
Subsequently, the treated cells
Annexin V-FITC Apoptosis Assay
period of 30 min at 4 °C.
Technologies, Darmstadt, Germany).
μl PEG20.000). […] H3PO4. Aliquots were […]

[3] = test system: K-562; test: cells; settings: Homo sapiens
[4] = test system: MALME-3M
[5] = test system: SR; test: cells; settings: Homo sapiens
[6] = test system: OVCAR-5; settings: for TGI: OVCAR-5
[7] = test system: NCI-H322M; test: NCI SRB screening
[8] = molecular target: CDK2 (Homo sapiens, UniProt P24941); test: CDK2 inhibition assay; assay type: biochemical; settings: CDK2, mean ± SE of three
Method: and of the test compound in a final volume of 10 µL, all in a reaction buffer (60 mM HEPES-NaOH, pH 7.5, 3 mM MgCl2, 3 mM MnCl2, 3 μM Na-orthovanadate, 1.2 mM DTT, 2.5 μg / 50 μl PEG20.000). The reactions were stopped by adding 5 µL of 3 % aq. H3PO4. Aliquots were spotted onto P-81 phosphocellulose (Whatman), washed 3× with 0.5 % aq. H3PO4 and finally air-dried. Kinase inhibition was quantified using a FLA-7000 digital image analyzer (Fujifilm).

[9] = test system: HCT-15; settings: for TGI: HCT-15
[10] = test system: SK-MEL-5; settings: for TGI: SK-MEL-5
[11] = test system: SW-620; test: cells; settings: Homo sapiens
[12] = test system: SNB-75; test: cells; settings: Homo sapiens
[13] = test system: A549/ATCC
[14] = test system: U251; test: cells; settings: Homo sapiens
[15] = test system: HS 578T; test: cells; settings: Homo sapiens
[16] = test system: HS 578T
[17] = test system: MALME-3M; test: cells; settings: Homo sapiens
[18] = test system: UACC-62; settings: for TGI: UACC-62
[19] = test system: breast T-47D cancer cells; test: Cell cycle analysis by DNA flow cytometry; assay type: cell-based, human; settings: 8a at GI50 concentration (0.41 µM), 24 h
Method: were washed twice with ice-cold phosphate buffered saline (PBS). Subsequently, the treated cells were collected by centrifugation, fixed in ice-cold 70% (v/v) ethanol, washed with PBS, re-suspended with 100 μg/mL RNase, stained with 40 μg/mL PI, and analyzed by flow cytometry using FACS Calibur (Becton Dickinson, BD, Franklin Lakes, NJ, USA). The cell cycle distributions were calculated using CellQuest software 5.1 (Becton Dickinson).

[20] = test system: NCI-H522; test: cells; settings: Homo sapiens
[21] = test system: SK-OV-3; test: cells; settings: Homo sapiens, SK-OV-3, read-out: LC50
[22] = test system: SK-MEL-5; test: cells; settings: Homo sapiens
[23] = test system: HT29; test: cells; settings: Homo sapiens
[24] = test system: NCI-H460; test: NCI SRB screening; assay type: cell-based, human
[25] = test system: MDA-MB-231/ATCC
[26] = test system: HL-60(TB); test: cells; settings: Homo sapiens
[27] = test system: HOP-92; settings: for TGI: HOP-92
[28] = test system: OVCAR-5; test: cells; settings: Homo sapiens
[29] = test system: SW-620; settings: for TGI: SW-620
[30] = test system: SK-MEL-2; settings: for TGI: SK-MEL-2
[31] = test system: SF-539; settings: for TGI: SF-539
[32] = test system: NCI/ADR-RES; test: cells; settings: Homo sapiens
[33] = test system: CCRF-CEM
[34] = test system: A549/ATCC; test: cells; settings: Homo sapiens
[35] = test system: TK-10; settings: for TGI: TK-10
[36] = test system: OVCAR-8; settings: for TGI: OVCAR-8
[37] = test system: OVCAR-3; test: cells; settings: Homo sapiens
[38] = test system: KM12; test: cells; settings: Homo sapiens
[39] = test system: M14; test: NCI SRB screening; assay type: cell-based

Work on `CCCn1cc(C=NN=C2C(=O)Nc3ccc(C)cc32)c2ccccc21` [Compound 8a] yielded a GI50 ([1]; OVCAR-4) of 0.93 µM, a TGI ([1]; OVCAR-4) of 25.60 µM and a GI % ([1]; OVCAR-4, 10 μM) of 58%. The “Growth Percent” value ([1]; OVCAR-4, 1.00E-5 Molar) was 41.83%, the TGI ([1]; OVCAR-4, listed as D - 795311 / 1) was 2.56E-5 Molar and the “apoptotic cells, early apoptotic phase” value ([2]; control 0.26%) was 4.82%. For the same compound, the “apoptotic cells, late apoptotic phase” value ([2]; control 0.47%) was 14.62%, the “increase in total apoptosis” value ([2]; vs untreated control) was “about 26 fold” and the GI50 ([3]; K562) was 2.22 µM. For the same compound, the CC50 ([3]; K562, read-out: LC50) was greater than 100 µM, the TGI [4] was 6.03 µM and the GI % ([4]; 10 μM) was 49%. The “Growth Percent” value ([4]; 1.00E-5 Molar) was 51.68%, the TGI ([4]; listed as D - 795311 / 1) was 6.03E-6 Molar and the GI50 [5] was 0.521 µM. For the same compound, the CC50 ([5]; read-out: LC50) was greater than 100 µM, the TGI [6] was 25.8 µM and the GI % ([6]; OVCAR-5, 10 μM) was 16%. The “Growth Percent” value ([6]; OVCAR-5, 1.00E-5 Molar) was 84.60%, the TGI ([6]; listed as D - 795311 / 1) was 2.58E-5 Molar and the TGI [7] was greater than 100 µM. The GI % ([7]; 10 μM) was 53%, the “Growth Percent” value ([7]; 1.00E-5 Molar) was 47.76% and the GI50 ([7]; Homo sapiens) was 3.42 µM. It also gave a CC50 ([7]; Homo sapiens, read-out: LC50) greater than 100 µM, a TGI ([7]; listed as D - 795311 / 1) greater than 1.00E-4 Molar and an IC50 [8] of 0.85 ± 0.03 µM. For the same compound, the TGI [9] was 42.2 µM, the GI % ([9]; HCT-15, 10 μM) was 77% and the “Growth Percent” value ([9]; HCT-15, 1.00E-5 Molar) was 23.04%. For the same compound, the TGI ([9]; listed as D - 795311 / 1) was 4.22E-5 Molar, the TGI [10] was 13.50 µM and the GI % ([10]; SK-MEL-5, 10 μM) was 51%. For the same compound, the “Growth Percent” value ([10]; SK-MEL-5, 1.00E-5 Molar) was 49.07%, the TGI ([10]; listed as D - 795311 / 1) was 1.35E-5 Molar and the CC50 ([10]; human, 48 h) was 39 µM. It also gave a GI50 ([11]; SW-620) of 2.97 µM, a CC50 ([11]; SW-620, read-out: LC50) greater than 100 µM and a GI50 ([12]; SNB-75) of 2.31 µM. For the same compound, the CC50 ([12]; SNB-75, read-out: LC50) was greater than 100 µM, the TGI [13] was 39.6 µM and the GI % ([13]; 10 μM) was 36%. The “Growth Percent” value ([13]; 1.00E-5 Molar) was 63.93%, the TGI ([13]; listed as D - 795311 / 1) was 3.96E-5 Molar and the GI50 ([14]; U-251) was 3.51 µM. The CC50 ([14]; U-251, read-out: LC50) was greater than 100 µM, the GI50 [15] was 11.3 µM and the CC50 ([15]; read-out: LC50) was greater than 100 µM. The TGI [16] was greater than 100 µM, the GI % ([16]; 10 μM) was 26% and the “Growth Percent” value ([16]; 1.00E-5 Molar) was 74.02%. The TGI ([16]; listed as D - 795311 / 1) was greater than 1.00E-4 Molar, the GI50 [17] was 1.88 µM and the CC50 ([17]; read-out: LC50) was greater than 100 µM. The TGI [18] was 12.10 µM, the GI % ([18]; UACC-62, 10 μM) was 60% and the “Growth Percent” value ([18]; UACC-62, 1.00E-5 Molar) was 40.39%. For the same compound, the TGI ([18]; listed as D - 795311 / 1) was 1.21E-5 Molar, the “cell population in sub-G1 phase” value ([19]; control 1.25%) was 17.73% and the G2/M phase fraction ([19]; control 19.19%) was 34.05%. The GI50 ([20]; NCI-H522) was 1.81 µM, the CC50 ([20]; NCI-H522, read-out: LC50) was greater than 100 µM and the CC50 [21] was greater than 100 µM. The GI50 ([22]; SK-MEL-5) was 2.86 µM, the CC50 ([22]; SK-MEL-5, read-out: LC50, SK-MEL-5) was 47.4 µM and the GI50 ([23]; HT-29) was 3.4 µM. The CC50 ([23]; HT-29, read-out: LC50) was greater than 100 µM, the GI50 ([24]; Homo sapiens, NCI-H460) was 2.17 µM and the TGI ([24]; NCI-H460) was 10.6 µM. For the same compound, the GI % ([24]; NCI-H460, 10 μM) was 68%, the “Growth Percent” value ([24]; NCI-H460, 1.00E-5 Molar) was 32.08% and the TGI ([24]; NCI-H460, listed as D - 795311 / 1) was 1.06E-5 Molar. The GI % ([25]; MDA-MB-231, 10 μM) was 66%, the TGI ([25]; MDA-MB-231/ATCC) was 7.40 µM and the “Growth Percent” value ([25]; MDA-MB-231/ATCC, 1.00E-5 Molar) was 34.35%. For the same compound, the TGI ([25]; MDA-MB-231/ATCC, listed as D - 795311 / 1) was 7.40E-6 Molar, the GI50 ([26]; HL-60) was 1.31 µM and the CC50 ([26]; HL-60, read-out: LC50) was greater than 100 µM. The TGI [27] was 6.57 µM, the GI % ([27]; HOP-92, 10 μM) was 63% and the “Growth Percent” value ([27]; HOP-92, 1.00E-5 Molar) was 37.42%. It also gave a TGI ([27]; listed as D - 795311 / 1) of 6.57E-6 Molar, a GI50 ([28]; OVCAR-5) of 4.04 µM and a CC50 ([28]; OVCAR-5, read-out: LC50) greater than 100 µM. For the same compound, the TGI [29] was 35.3 µM, the GI % ([29]; SW-620, 10 μM) was 64% and the “Growth Percent” value ([29]; SW-620, 1.00E-5 Molar) was 36.69%. The TGI ([29]; listed as D - 795311 / 1) was 3.53E-5 Molar, the TGI [30] was 8.03 µM and the GI % ([30]; SK-MEL-2, 10 μM) was 65%. The “Growth Percent” value ([30]; SK-MEL-2, 1.00E-5 Molar) was 35.06%, the TGI ([30]; listed as D - 795311 / 1) was 8.03E-6 Molar and the TGI [31] was 17.1 µM. For the same compound, the GI % ([31]; SF-539, 10 μM) was 66%, the “Growth Percent” value ([31]; SF-539, 1.00E-5 Molar) was 33.94% and the TGI ([31]; listed as D - 795311 / 1) was 1.71E-5 Molar. It also gave a GI50 [32] of 6.39 µM, a CC50 ([32]; read-out: LC50) greater than 100 µM and a TGI [33] greater than 100 µM. For the same compound, the GI % ([33]; 10 μM) was 101%, the “Growth Percent” value ([33]; 1.00E-5 Molar) was -0.65% and the TGI ([33]; listed as D - 795311 / 1) was greater than 1.00E-4 Molar. For the same compound, the GI50 ([34]; A549) was 7.18 µM, the CC50 ([34]; A549, read-out: LC50) was greater than 100 µM and the TGI [35] was greater than 100 µM. For the same compound, the GI % ([35]; TK-10, 10 μM) was “– (Only GI % higher than 10% are shown)”, the “Growth Percent” value ([35]; TK-10, 1.00E-5 Molar) was 106.72% and the TGI ([35]; listed as D - 795311 / 1) was greater than 1.00E-4 Molar. The TGI [36] was greater than 100 µM, the GI % ([36]; OVCAR-8, 10 μM) was 53% and the “Growth Percent” value ([36]; OVCAR-8, 1.00E-5 Molar) was 47.49%. The TGI ([36]; listed as D - 795311 / 1) was greater than 1.00E-4 Molar, the GI50 ([37]; OVCAR-3) was 1.36 µM and the CC50 ([37]; OVCAR-3, read-out: LC50) was greater than 100 µM. The GI50 ([38]; KM12) was 3.22 µM, the CC50 ([38]; KM12, read-out: LC50) was greater than 100 µM and the GI50 ([39]; Homo sapiens, M14) was 1.92 µM. The TGI ([39]; M14) was 4.70 µM, the GI % ([39]; M14, 10 μM) was 44% and the “Growth Percent” value ([39]; M14, 1.00E-5 Molar) was 56.29%. It also gave a TGI ([39]; M14, listed as D - 795311 / 1) of 4.70E-6 Molar.
